Where a SMILES comes first, the peptide text is derived from it. Bridges are numbered along the chain shown (N, C = ends).
How the values were obtained:
[1] = tested on: serum calcium concentration
Experimental: Biological Assay Of Calcitonin Analogs In Vivo
The biological potency of [8-methionine]salmon calcitonin was determined by comparing the reduction of serum calcium concentration which followed administration by graded doses of [Met^8 ]SCT and synthetic salmon calcitonin standard. Rats were divided into four groups of seven animals, and each group was assigned at random to a dose of standard or test solution. Low and high doses were chosen from the linear portion of the dose-response curve. For the salmon calcitonin standard, the values were 0.7 and 2.1 mcg. peptide/100 g. body weight (BW). This dose approximates 3 and 9 MU/100 g. BW. Peptides were given by subcutaneous injection (0.2 ml/100 g. BW) and blood was withdrawn 1 hour later for serum calcium determination. Sera are processed and analyzed within two hours of collection. Results were analyzed within two hours of collection.

[2] = tested on: serum calcium (hypocalcemic potency); conditions: Monikawa et al., Experientia 32(9), 1104-1106 (1976); cited from earlier work

Molecule: CSCC[C@H](NC(=O)[C@@H]1CSSC[C@H](N)C(=O)N[C@@H](CO)C(=O)N[C@@H](CC(N)=O)C(=O)N[C@@H](CC(C)C)C(=O)N[C@@H](CO)C(=O)N[C@@H]([C@@H](C)O)C(=O)N1)C(=O)N[C@@H](CC(C)C)C(=O)NCC(=O)N[C@@H](CCCCN)C(=O)N[C@@H](CC(C)C)C(=O)N[C@@H](CO)C(=O)N[C@@H](CCC(N)=O)C(=O)N[C@@H](CCC(=O)O)C(=O)N[C@@H](CC(C)C)C(=O)N[C@@H](Cc1c[nH]cn1)C(=O)N[C@@H](CCCCN)C(=O)N[C@@H](CC(C)C)C(=O)N[C@@H](CCC(N)=O)C(=O)N[C@H](C(=O)N[C@@H](Cc1ccc(O)cc1)C(=O)N1CCC[C@H]1C(=O)N[C@@H](CCCNC(=N)N)C(=O)N[C@H](C(=O)N[C@@H](CC(N)=O)C(=O)N[C@H](C(=O)NCC(=O)N[C@@H](CO)C(=O)NCC(=O)N[C@H](C(=O)N1CCC[C@H]1C(N)=O)[C@@H](C)O)[C@@H](C)O)[C@@H](C)O)[C@@H](C)O [[Met^8]SCT, [8-methionine]salmon calcitonin] (H-CSNLSTCMLGKLSQELHKLQTYPRTNTGSGTP-NH2; disulfide 1-7)
- biological potency ([1]; rat, in vivo, sc): 5500 IU/mg

Molecule: CC(C)C[C@H](NC(=O)[C@H](CCCCN)NC(=O)CNC(=O)[C@H](CC(C)C)NC(=O)[C@@H](NC(=O)[C@@H]1CSSC[C@H](N)C(=O)N[C@@H](CO)C(=O)N[C@@H](CC(N)=O)C(=O)N[C@@H](CC(C)C)C(=O)N[C@@H](CO)C(=O)N[C@@H]([C@@H](C)O)C(=O)N1)C(C)C)C(=O)N[C@@H](CO)C(=O)N[C@@H](CCC(N)=O)C(=O)N[C@@H](CCC(=O)O)C(=O)N[C@@H](CC(C)C)C(=O)N[C@@H](Cc1c[nH]cn1)C(=O)N[C@@H](CCCCN)C(=O)N[C@@H](CC(C)C)C(=O)N[C@@H](CCC(N)=O)C(=O)N[C@H](C(=O)N[C@@H](Cc1ccc(O)cc1)C(=O)N1CCC[C@H]1C(=O)N[C@@H](CCCNC(=N)N)C(=O)N[C@H](C(=O)N[C@@H](CC(N)=O)C(=O)N[C@H](C(=O)NCC(=O)N[C@@H](CO)C(=O)NCC(=O)N[C@H](C(=O)N1CCC[C@H]1C(N)=O)[C@@H](C)O)[C@@H](C)O)[C@@H](C)O)[C@@H](C)O [standard salmon calcitonin, Salmon calcitonin]
- potency content of the standard ([1]; standard salmon calcitonin, independently determined): greater than 4,000 IU/mg

Molecule: (1,7-α-L-aminosuberic acid)eel calcitonin
- hypocalcemic potency [2]: about 3400 Iu/mg

Molecule: eel calcitonin [synthetic eel calcitonin]
- hypocalcemic potency [2]: around 4300 Iu/mg

From US4622387A, “8-methionine calcitonin” (Armour Pharmaceutical Co., priority 1985, dated 1986)
